Assays:
Assay type in all cases: physicochemical
[1] = Dynamic Vapor Sorption (DVS), hygroscopicity of polymorphic forms; settings: for form change during DVS cycling / post-DVS (XRPD): XRPD of retained solid
Protocol: Dynamic Vapor Sorption (DVS) was used to determine the hygroscopicity of stable polymorphic forms. Approximately 10-20 milligrams of sample was placed in to a mesh vapor sorption balance pan and loaded into an intrinsic dynamic vapor sorption balance by Surface Measurement Systems. The sample was subjected to ramping profile from 40-90% relative humidity (RH) at 10% increments, maintain the sample at each step until as table weight had been achieved (dm/dt 0.0004%, minimum step length 30 minutes, maximum step length 500 minutes) at 25° C. After completion of the sorption cycle, the sample was dried using the same procedure to 0% RH and then a second sorption cycle back to 40% RH. Two cycles were performed. The weight change during the sorption/desorption cycles were plotted, allowing for the hygroscopic nature of the sample tot be determined. XRPD was then carried out on any solid retained to determine if there was change between polymorphic forms during the process.

[2] = Competitive slurry, thermodynamic stability of crystalline forms; settings: competitive slurry conditions, Form III seeds present; monobenzenesulfonate
[3] = Solubility in aqueous solutions; settings: aqueous solutions at neutral pH
[4] = TGA/DSC, thermal degradation; settings: 10° C./min
Protocol: Thermogravimetric Analysis/Differential Scanning calorimetry (TGA/DSC) was used to determine the phase transition and degradation points as well as the hydrated/solvated states of the various polymorphic forms identified. Approximately 5-10 milligrams of material was added into a pre-tared open aluminum pan and loaded into a TA Instruments SDT 650 Auto-Simultaneous DSC and held at room temperature. The sample was then heated at a rate of 10° C./min from 30° C. to 400° C. during which time the change in sample weight was recorded along with the heat flow response (DSC). Nitrogen was used as the sample purge gas, at a flow rate of 200 cm^3/min. Skilled artisans will appreciate that ambient laboratory conditions may cause slight variability in these readings.

[5] = DVS, 25° C., monobenzenesulfonate
[6] = DVS at 90% relative humidity, 25° C., monobenzenesulfonate

Structure (SMILES) | form change during DVS cycling / post-DVS (XRPD) ([1]; monobenzenesulfonate) | hygroscopicity [1, 5] | thermodynamic stability / form conversion [2] | mass uptake [1, 6] | solubility relative to other forms [3] | onset of thermal degradation [4] [°C] | mass uptake ([1]; DVS, desolvated form, between 0% and 10% humidity) [%] | mass loss (desolvation) ([1]; DVS, during the first cycle) [%] | onset of thermal degradation ([4]; monobenzenesulfonate) [°C]
CC1(COc2ccc3c(c2)ncn3-c2ccc3cccc(N4CCC(N)CC4)c3n2)COC1.O=S(=O)(O)c1ccccc1 [Form I, 1-[2-[5-[(3-Methyl-3-oxetanyl)methoxy]-1H-benzimidazol-1-yl]-8-quinolinyl]-4-piperidinamine monobenzenesulfonate] | No form change | non-hygroscopic | will convert to Form III | – | – | – | – | – | –
CC1(COc2ccc3c(c2)ncn3-c2ccc3cccc(N4CCC(N)CC4)c3n2)COC1.O=S(=O)(O)c1ccccc1 [Form II, 1-[2-[5-[(3-Methyl-3-oxetanyl)methoxy]-1H-benzimidazol-1-yl]-8-quinolinyl]-4-piperidinamine monobenzenesulfonate] | No form change | slightly hygroscopic | – | approximately 1.5% | more soluble in aqueous solutions at neutral pH than the anhydrous Forms I and III | 165 | – | – | –
CC1(COc2ccc3c(c2)ncn3-c2ccc3cccc(N4CCC(N)CC4)c3n2)COC1.O=S(=O)(O)c1ccccc1 [Form III, 1-[2-[5-[(3-Methyl-3-oxetanyl)methoxy]-1H-benzimidazol-1-yl]-8-quinolinyl]-4-piperidinamine monobenzenesulfonate] | No form change | slightly hygroscopic | most thermodynamically stable crystalline form | approximately 1.5% | – | – | – | – | –
CC1(COc2ccc3c(c2)ncn3-c2ccc3cccc(N4CCC(N)CC4)c3n2)COC1.O=S(=O)(O)c1ccccc1 [Form IV, 1-[2-[5-[(3-Methyl-3-oxetanyl)methoxy]-1H-benzimidazol-1-yl]-8-quinolinyl]-4-piperidinamine monobenzenesulfonate] | converts to the hemi-hydrated Form II | hygroscopic | – | – | – | – | 1.5 | 9.4 | 241
